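Test compounds were applied to cells in 96-well plates for 48 hours at 5 doses. GI50 marks 50% less growth. TGI: total growth inhibition.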
What was measured:
Experiment in all cases: DTP human tumour cell line panel, 48 h
A549 NSCLC = tested on: A549 NSCLC
ACHN renal = tested on: ACHN renal
KM12 colon = tested on: KM12 colon
LOX IMVI melanoma = tested on: LOX IMVI melanoma
MCF7 breast = tested on: MCF7 breast
OVCAR-3 ovarian = tested on: OVCAR-3 ovarian
OVCAR-5 ovarian = tested on: OVCAR-5 ovarian
RXF 393 renal = tested on: RXF 393 renal
SF-539 CNS = tested on: SF-539 CNS
UO-31 renal = tested on: UO-31 renal

| Structure (SMILES) | GI50 (A549 NSCLC) [µM] | TGI (A549 NSCLC) [µM] | GI50 (ACHN renal) [µM] | TGI (ACHN renal) [µM] | GI50 (KM12 colon) [µM] | TGI (KM12 colon) [µM] | GI50 (LOX IMVI melanoma) [µM] | TGI (LOX IMVI melanoma) [µM] | GI50 (MCF7 breast) [µM] | TGI (MCF7 breast) [µM] | GI50 (OVCAR-3 ovarian) [µM] | TGI (OVCAR-3 ovarian) [µM] | GI50 (OVCAR-5 ovarian) [µM] | TGI (OVCAR-5 ovarian) [µM] | GI50 (RXF 393 renal) [µM] | TGI (RXF 393 renal) [µM] | TGI (SF-539 CNS) [µM] | TGI (UO-31 renal) [µM] | GI50 (SF-539 CNS) [µM] | GI50 (UO-31 renal) [µM] |
| --- | --- | --- | --- | --- | --- | --- | --- | --- | --- | --- | --- | --- | --- | --- | --- | --- | --- | --- | --- | --- |
| Cc1cc(NCCCCNc2ccnc3cc(Cl)ccc23)nc(Nc2ccc(C(=O)N3CCCCC3)cc2)n1 | 2.51 | 5.47 | 3.01 | 9.28 | 1.91 | 4.21 | 1.44 | 3.01 | 1.48 | 4.34 | 1.7 | 3.44 | 3.04 | 9.22 | 1.24 | 2.73 | – | – | – | – |
| NC(CCc1ncc(C(=O)O)s1)C(=O)O (configuration not stated) | – | > 100 | – | > 100 | – | > 100 | – | > 100 | – | – | – | > 100 | – | – | – | > 100 | > 100 | > 100 | – | – |
| CCOC(=O)C1=C(Nc2ccc(Br)cc2)OCC1=O | – | > 100 | – | > 100 | – | > 100 | – | – | – | – | – | > 100 | – | – | – | > 100 | > 100 | > 100 | – | – |
| COc1ccc2nc3cc(Cl)ccc3c(Sc3ccc(NC(C)=O)cc3)c2c1 | – | > 100 | – | 18.7 | – | > 35.2 | – | 11.4 | – | – | – | > 22.8 | – | > 45.7 | – | > 27.9 | 27.3 | > 33.4 | – | – |
| Cc1c(Cl)cccc1NC(=O)c1cccc([N+](=O)[O-])c1O | – | > 72.1 | – | 62.5 | – | > 68.5 | – | 36.3 | – | – | – | 51.4 | – | > 93.8 | – | 19.7 | 40.6 | 40.5 | – | – |
| N#CC(C#N)=C1CCCOc2c1ccc1ccccc21 | > 100 | > 100 | > 100 | > 100 | > 100 | > 100 | – | – | > 100 | > 100 | > 100 | > 100 | > 100 | > 100 | > 100 | > 100 | > 100 | > 100 | > 100 | > 100 |
| CC12CCC(=O)N1c1cccnc1N2 (configuration not stated) | – | > 100 | – | > 100 | – | > 100 | – | > 100 | – | – | – | > 100 | – | > 100 | – | > 100 | > 100 | > 100 | – | – |
| COC(=O)c1c[nH]cc1CCCCc1c[nH]cc1C(=O)OC | – | > 100 | – | > 100 | – | > 100 | – | > 100 | – | – | – | > 100 | – | > 100 | – | > 100 | > 100 | – | – | – |
| COc1cc(/C=N\O[Si](C)(C)C(C)(C)C)ccc1O[Si](C)(C)C(C)(C)C | – | > 100 | – | > 100 | – | > 100 | – | 62 | – | – | – | 54.1 | – | 68.7 | – | > 100 | > 100 | > 100 | – | – |
| C=CCn1c(SCC(=O)Nc2ccc(C(=O)/C=C/c3cc(OC)c(OC)c(OC)c3)cc2)nnc1-c1ccc(OC)cc1 | 0.875 | 4.83 | – | – | 0.315 | 1.5 | 0.28 | 1.03 | 0.246 | 3.14 | 0.343 | 1.02 | – | – | 0.377 | 1.41 | 0.666 | – | 0.248 | – |

— PubChem BioAssay (NCI)
